Values quoted from earlier work, collected in patent US20090092668A1, “ACETAMINOPHEN FORMULATION FOR JOINT PAIN RELIEF” (priority 2006, published 2009).

Experiments:
[1] = one subject

| excreted as exhaled carbon dioxide (of the absorbed glucosamine) [%] | excreted in the urine (of the absorbed glucosamine) [%] | remaining in the tissues (of the absorbed glucosamine) [%] | absorbed from the small intestine (sulfate form) | SMILES | pain status ([1]; ¼-½ tsp. daily for about 16 months) | pain relief ([1]; ½ tsp. daily in diet, by the end of the second week) |
| --- | --- | --- | --- | --- | --- | --- |
|  |  |  |  | CS(C)(=O)=O [MSM, Methylsulfonylmethane] | substantially pain-free life | almost total pain relief |
| 65 | 25 | 10 | over 90% | N[C@H]1C(O)O[C@H](CO)[C@@H](O)[C@@H]1O (stereo partly drawn) [glucosamine] |  |  |
